# Test results as given in patent publication EP0406297B1, “Medical use of neuropeptide Antagonist G” (IMPERIAL CANCER RESEARCH TECHNOLOGY LIMITED, priority 1988, dated 1996).
# Residues, ends and D or L forms follow the SMILES beside them.
# How the values were obtained:
# [1] = system: small cell lung cancer (SCLC) cell line; experiment: growth in vitro of small cell lung cancer cell lines; type: cell-based
# Procedure: The ability of antagonists A, D and G to inhibit the growth in vitro of a small cell lung cancer (SCLC) cell line was tested. The cell lines used were • a) H69 and H128 from the ATCC in Maryland USA; • b) H209, H345 and H510A obtained from Dr. A. Gazdar at NCI, NIH, Maryland USA; • c) UCH25 from Dr. P. Beverley, University College, London, England.
# [2] = system: Swiss 3T3 cells; conditions: for IC50: read-out: IC50 for inhibition of mitogenesis induced by bradykinin, 9.4 nM bradykinin, 1 µg/ml insulin
# [3] = system: Swiss 3T3 cells; conditions: cited from earlier work
# [4] = system: vasopressin receptor; conditions: Swiss 3T3 cells; cited from earlier work
# [5] = system: Swiss 3T3 cells; experiment: vasopressin-stimulated DNA synthesis in Swiss 3T3 cells; type: cell-based, murine
# [6] = system: Swiss 3T3 cells; experiment: specificity: DNA synthesis with a variety of other mitogens in Swiss 3T3 cells; type: cell-based, murine
# [7] = system: SCLC cell lines; experiment: calcium mobilisation tests in SCLC cell lines; type: cell-based; conditions: 20 µM
# Procedure: These responses can be blocked by 20 µM antagonist D in 3 of 3 lines tested (H69, H345, H510A) and by 20 µM antagonist G in H510A.
# [8] = system: Swiss 3T3 cells; conditions: earlier patent application and references 10, 11; cited from earlier work
# [9] = system: Swiss 3T3 cells; experiment: GRP-induced DNA synthesis ([3H]thymidine incorporation) in quiescent Swiss 3T3 cells; type: cell-based, murine
# [10] = system: bombesin receptor; conditions: Swiss 3T3 cells; cited from earlier work
compound,measurement,setting,value
"CC(C)C[C@H](NC(=O)[C@H](CC(C)C)NC(=O)[C@@H](Cc1c[nH]c2ccccc12)NC(=O)[C@H](Cc1ccccc1)NC(=O)[C@@H](Cc1c[nH]c2ccccc12)NC(=O)[C@H](CCC(N)=O)NC(=O)[C@H](CCC(N)=O)NC(=O)[C@@H]1CCCN1C(=O)[C@H](CCCCN)NC(=O)[C@H]1CCCN1C(=O)[C@H](N)CCCNC(=N)N)C(N)=O [antagonist A, D-Arg-D-Pro-Lys-Pro-Gln-Gln-D-Trp-Phe-D-Trp-Leu-Leu-NH2] (HELM PEPTIDE1{[dR].[dP].K.P.Q.Q.[dW].F.[dW].L.L.[am]}$$$$V2.0)",concentrations effective in inhibiting growth of SCLC,"[1]; H69, H82, H128, H417 and UCH25",50 to 150 µM
same,"cell lines in which growth inhibition was found, of cell lines tested",[1]; SCLC cell lines,5 of 5
same,IC50,[2],90 µM
same,inhibition of vasopressin-stimulated DNA synthesis,[3],inhibit
same,inhibition of [3H]vasopressin binding,[4],inhibit
"CC(C)C[C@H](NC(=O)[C@H](CC(C)C)NC(=O)[C@@H](Cc1c[nH]c2ccccc12)NC(=O)[C@H](Cc1ccccc1)NC(=O)[C@@H](Cc1c[nH]c2ccccc12)NC(=O)[C@H](CCC(N)=O)NC(=O)[C@@H](Cc1ccccc1)NC(=O)[C@@H]1CCCN1C(=O)[C@H](CCCCN)NC(=O)[C@@H]1CCCN1C(=O)[C@H](N)CCCNC(=N)N)C(N)=O [antagonist D, D-Arg-Pro-Lys-Pro-D-Phe-Gln-D-Trp-Phe-D-Trp-Leu-Leu-NH2] (HELM PEPTIDE1{[dR].P.K.P.[dF].Q.[dW].F.[dW].L.L.[am]}$$$$V2.0)",inhibition of vasopressin-induced DNA synthesis,"[5]; 20 µM antagonist D, LψLB at concentrations that strongly inhibited GRP-induced mitogenesis (1 µM)",potent inhibitor
same,"inhibition of mitogenesis stimulated by EGF, PDGF, phorbol dibutyrate, cholera toxin and 8-bromo-cAMP",[6],Neither of them inhibited
same,effect against various bombesin-like peptides (DNA synthesis),"[6]; GRP 3.6 nM, bombesin 1.2 nM, litorin 1.8 nM, 20 µM antagonist D or 1 µM LψLB",effective
same,inhibition of mitogenesis stimulated by VIP,"[6]; VIP 3.0 nM, 20 µM antagonist D or 1 µM LψLB",Neither antagonist D nor [Leu^13-ψ(CH2NH)Leu^14]bombesin inhibited
same,increase in potency against each mitogen relative to antagonist A,"[6]; mitogens bombesin/GRP, bradykinin, vasopressin",5-10 fold
same,potency in inhibiting growth of SCLC relative to Antagonist A,[1],5-10 fold
same,"cell lines in which growth inhibition was found, of cell lines tested",[1]; SCLC cell lines,6 of 6
same,concentration that abolishes cell growth,[1]; SCLC cell lines,40 to 50 µM
same,"SCLC lines in which the Ca2+ responses were blocked, of lines tested",[7],3 of 3
same,"transient elevation of intracellular [Ca2+] in response to bradykinin, GRP and vasopressin","[7]; H69, H345, H510A",blocked
same,IC50,[2],8.3 µM
same,potency as bombesin antagonist relative to antagonist A,[8],5-10 fold
same,inhibition of vasopressin-stimulated DNA synthesis,[3],inhibit
same,inhibition of [3H]vasopressin binding,[4],inhibit
"CSCC[C@H](NC(=O)[C@H](CC(C)C)NC(=O)[C@@H](Cc1c[nH]c2ccccc12)NC(=O)[C@H](Cc1ccccc1)N(C)C(=O)[C@@H](Cc1c[nH]c2ccccc12)NC(=O)[C@@H](N)CCCNC(=N)N)C(N)=O [antagonist G, Arg.D-Trp.MePhe.D-Trp-Leu-Met-NH2] (HELM PEPTIDE1{R.[dW].[meF].[dW].L.M.[am]}$$$$V2.0)","potency as antagonist of growth induced by GRP, compared with Antagonist D",[9],less potent
same,"potency as antagonist of vasopressin induced cell growth, compared with Antagonist D",[5]; Swiss 3T3 cells,as potent as Antagonist D
same,"inhibition of growth in SCLC cells, compared with antagonist D","[1]; H69, H209, H345 and H510A",equipotent with antagonist D
same,"cell lines in which growth inhibition was found, of cell lines tested",[1]; SCLC cell lines,4 of 4
same,"transient elevation of intracellular [Ca2+] in response to bradykinin, GRP and vasopressin",[7]; H510A,blocked
same,"potency as antagonist of growth induced by bradykinin, compared with Antagonist D",[2]; Swiss 3T3 cells,less potent
Arg-Pro-Lys-Pro-Gln-Gln-Phe-Phe-Gly-Leu-Met-NH2 [substance P],binding of [125I]GRP,[10],neither inhibits
